Test results published in patent US20240408169A1 (priority 2023, published 2024).
Where two headings read alike, the source gives them in different places. *1 amine or outer side, *2 acyl side, *3 side chain or, on linkers, in order; H or OH if unused. Where a SMILES comes first, the peptide text is derived from it. Bridges are numbered along the chain shown (N, C = ends). [ ]: non-standard residue; d: D form. The star is where a group is joined. X53 = CN1[C@@H]2CC[C@H]1CN(c1ccc(-c3ccc(Cl)cc3C[C@@H](C(=O)[*:2])N(C)[*:1])cc1)C2; NMePhe(2-(4-MorPh),5-Cl) = CN[C@@H](Cc1cc(Cl)ccc1-c1ccc(N2CCOCC2)cc1)C(=O)O; X3 = COCCOCCN1CCN(c2ccc(-c3ccc(Cl)cc3C[C@@H](C(=O)[*:2])N(C)[*:1])cc2)CC1; X82 = CN([C@@H](Cc1cc(Cl)ccc1-c1cnn(S(C)(=O)=O)c1)C(=O)[*:2])[*:1]; X87 = CN([C@@H](Cc1cc(F)ccc1-c1ccc(N2CCOCC2)cc1)C(=O)[*:2])[*:1]; X14 = Cc1nc(C)c(-c2ccc(Cl)cc2C[C@@H](C(=O)[*:2])N(C)[*:1])s1; NMe3Pal(2-OiBu,5-Cl) = CN[C@@H](Cc1cc(Cl)cnc1OCC(C)C)C(=O)O; NMehhhLys(Me) = CN([C@@H](CCCCCCCN(C)[*:3])C(=O)[*:2])[*:1]; X51 = CSc1cncc(-c2ccc(Cl)cc2C[C@@H](C(=O)[*:2])N(C)[*:1])c1; X22 = CN([C@@H](Cc1cc(Cl)ccc1-c1cnn(C)c1)C(=O)[*:2])[*:1]; NMe3Pal(2-OMe,5-Cl) = CN[C@@H](Cc1cc(Cl)cnc1OC)C(=O)O; Oxane2carbonyl(2R-CF3) = O=C([C@@]1(C(F)(F)F)CCCCO1)*; X41 = CN([C@@H](Cc1cc(Cl)cc2c1ccn2C)C(=O)[*:2])[*:1]; Cyclobutanecarbonyl(1-CF3) = O=C(C1(C(F)(F)F)CCC1)*; cBuCO(3,3-F2-1-CF3) = O=C(C1(C(F)(F)F)CC(F)(F)C1)*; Pro(trans-4-F) = O=C(O)[C@@H]1C[C@@H](F)CN1; Gly(cPr) = N[C@H](C(=O)O)C1CC1

What was measured:
OVCAR3 cells = test: MTT proliferation assay, OVCAR3; type: cell-based; details: 5 days compound exposure, 1:3 serial dilution starting at 10 μM;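 also: compound given as an 8- or 10-point series, one day after plating, with exposure covering roughly 3-4 cell doublings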
NCI-H1048 cells = test: MTT proliferation assay, NCI-H1048; type: cell-based; details: 5 days compound exposure, 1:3 serial dilution starting at 10 μM;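 also: Dose-response in 96-well plates over 8 or 10 concentration points, with exposure spanning 3-4 cell doublings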
CyclinA2/CDK2 = biological target: T1, CyclinA2/CDK2 (Homo sapiens, UniProt P20248); test: Fluorescence Polarization (FP) competitive binding assay, Cyclin A2/Cdk2;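 also: plates equilibrated two hours at room temperature before polarization reading, IC50 fitted from eight-concentration compound titration curves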
T1 construct: purchased CRELUX Protein Services

CyclinB1/CDK1 = biological target: T2, CyclinB1/CDK1 (Homo sapiens, UniProt P14635); test: Fluorescence Polarization (FP) competitive binding assay, Cyclin B1/Cdk1;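 also: fluorescence polarization read after equilibration at room temperature, with IC50 taken from serially diluted dose-response curves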
T2 construct: purchased Eurofins, discovery 14-450

WI-38 cells = test: MTT proliferation assay, WI-38; type: cell-based; details: 3 days compound exposure, 1:3 serial dilution starting at 10 μM;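 also: Eight- or ten-point dilution series, with exposure length chosen to span about three to four cell doublings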
CyclinE1/CDK2 = biological target: T3, CyclinE1/CDK2 (Homo sapiens, UniProt P24864); test: Fluorescence Polarization (FP) competitive binding assay, Cyclin E1/Cdk2;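 also: readings taken after two-hour equilibration at room temperature in HEPES buffer with NaCl, DTT, NP-40 and BSA, IC50 fitted from eight-concentration serial dilution series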
T3 construct: purchased Eurofins, discovery 14-475

[1] = 8 nM Cyclin A2/Cdk2, 2 nM FAM probe, average of 2-3 independent experiments, read-out: Cyclin A FP IC50
[2] = 10 nM Cyclin B1/Cdk1, 2 nM FAM probe; average of 2-3 independent experiments; read-out: Cyclin B FP IC50
[3] = 10 nM Cyclin E1/Cdk2, 2 nM FAM probe, average of 2-3 independent experiments, read-out: Cyclin E FP IC50
[4] = read-out: Cyclin B FP IC50; 10 nM Cyclin B1/Cdk1, 2 nM FAM probe; average of 2-3 independent experiments

Compound | GI50 (OVCAR3 cells) [nM] | GI50 (NCI-H1048 cells) [nM] | IC50 (CyclinA2/CDK2; [1]) [nM] | IC50 (CyclinB1/CDK1; [2]) [nM] | GI50 (WI-38 cells) [µM] | IC50 (CyclinE1/CDK2; [3]) [nM] | IC50 (CyclinA2/CDK2) [nM] | IC50 (CyclinB1/CDK1; [4]) [nM] | IC50 (CyclinE1/CDK2) [nM] | IC50 (CyclinA2/CDK2; read-out: Cyclin A FP IC50, 8 nM Cyclin A2/Cdk2, 2 nM FAM probe, average of 2-3 independent experiments) [nM]
CC(C)C[C@@H]1NC(=O)[C@@H](N(C)C(=O)[C@@H](NC(=O)[C@@H]2C[C@@H](F)CN2C(=O)C2(C(F)(F)F)CCC2)C2CC2)CCCCCCCN(C)C(=O)[C@H](Cc2cc(Cl)ccc2-c2cnn(C)c2)N(C)C1=O [Example 185] ({Cyclobutanecarbonyl(1-CF3)}-[Pro(trans-4-F)][Gly(cPr)][NMehhhLys(Me)]L[X22]; lactam 3-C) | 10 | 10 | 20 | 20 | 10.3 | 110 |  |  |  | 
CC(C)C[C@@H]1NC(=O)[C@@H](N(C)C(=O)[C@@H](NC(=O)[C@@H]2C[C@@H](F)CN2C(=O)C2(C(F)(F)F)CC(F)(F)C2)C2CC2)CCCCCCCN(C)C(=O)[C@H](Cc2cc(Cl)cc3c2ccn3C)N(C)C1=O [Example 393] ({cBuCO(3,3-F2-1-CF3)}-[Pro(trans-4-F)][Gly(cPr)][NMehhhLys(Me)]L[X41]; lactam 3-C) | 1310 | 1790 | 6670 | 47 | 13.7 | 1690 |  |  |  | 
CC(C)COc1ncc(Cl)cc1C[C@H]1C(=O)N(C)CCCCCCC[C@H](N(C)C(=O)[C@@H](NC(=O)[C@@H]2C[C@@H](F)CN2C(=O)C2(C(F)(F)F)CCC2)C2CC2)C(=O)N[C@@H](CC(C)C)C(=O)N1C [Example 230] ({Cyclobutanecarbonyl(1-CF3)}-[Pro(trans-4-F)][Gly(cPr)][NMehhhLys(Me)]L[NMe3Pal(2-OiBu,5-Cl)]; lactam 3-C) | 90 | 40 |  |  | 5.05 |  | 30 | 20 | 140 | 
CC(C)C[C@@H]1NC(=O)[C@@H](N(C)C(=O)[C@@H](NC(=O)[C@@H]2C[C@@H](F)CN2C(=O)C2(C(F)(F)F)CCC2)C2CC2)C/C=C\CCCCN(C)C(=O)[C@H](Cc2cc(Cl)ccc2-c2cnn(C3CC3)c2)N(C)C1=O [Example 176] | 10 | 10 | 20 | 20 | 5.48 | 100 |  |  |  | 
CC(C)C[C@@H]1NC(=O)[C@@H](N(C)C(=O)[C@@H](NC(=O)[C@@H]2C[C@@H](F)CN2C(=O)C2(C(F)(F)F)CC(F)(F)C2)C2CC2)CCCCCCCN(C)C(=O)[C@H](Cc2cc(F)ccc2-c2ccc(N3CCOCC3)cc2)N(C)C1=O [Example 337] ({cBuCO(3,3-F2-1-CF3)}-[Pro(trans-4-F)][Gly(cPr)][NMehhhLys(Me)]L[X87]; lactam 3-C) | 10 | 10 | 20 | 20 | 18.7 | 190 |  |  |  | 
CC(C)C[C@@H]1NC(=O)[C@@H](N(C)C(=O)[C@@H](NC(=O)[C@@H]2C[C@@H](F)CN2C(=O)C2(C(F)(F)F)CC(F)(F)C2)C2CC2)C/C=C\CCCCN(C)C(=O)[C@H](Cc2cc(Cl)ccc2-c2cnn(C3CC3)c2)N(C)C1=O [Example 175] | 10 | 10 | 20 | 20 | 6.85 | 130 |  |  |  | 
CC(C)C[C@@H]1NC(=O)[C@@H](N(C)C(=O)[C@@H](NC(=O)[C@@H]2C[C@@H](F)CN2C(=O)C2(C(F)(F)F)CC(F)(F)C2)C2CC2)CC=CCCCCNC(=O)[C@H](Cc2cc(Cl)cnc2OC2CC2)N(C)C1=O [Example 129] | 2580 | 1460 | 210 | 20 | 6.88 | 820 |  |  |  | 
CC(C)C[C@@H]1NC(=O)[C@@H](N(C)C(=O)[C@@H](NC(=O)[C@@H]2C[C@@H](F)CN2C(=O)C2(C(F)(F)F)CC(F)(F)C2)C2CC2)CCCCCCCN(C)C(=O)[C@H](Cc2cc(Cl)ccc2-c2cnn(S(C)(=O)=O)c2)N(C)C1=O [Example 238] ({cBuCO(3,3-F2-1-CF3)}-[Pro(trans-4-F)][Gly(cPr)][NMehhhLys(Me)]L[X82]; lactam 3-C) | 20 | 10 |  |  | 17.3 |  | 30 | 20 | 990 | 
COc1ncc(Cl)cc1C[C@H]1C(=O)N(C)CCCCCCC[C@H](N(C)C(=O)[C@@H](NC(=O)[C@@H]2C[C@@H](F)CN2C(=O)[C@@]2(C(F)(F)F)CCCCO2)C2CC2)C(=O)N[C@@H](CC(C)C)C(=O)N1C [Example 223] ({Oxane2carbonyl(2R-CF3)}-[Pro(trans-4-F)][Gly(cPr)][NMehhhLys(Me)]L[NMe3Pal(2-OMe,5-Cl)]; lactam 3-C) | 10 | 10 |  |  | 7.76 |  |  | 20 | 100 | 20
[2H]C([2H])([2H])N(C(=O)[C@@H](NC(=O)[C@@H]1C[C@@H](F)CN1C(=O)C1(C(F)(F)F)CC(F)(F)C1)C1CC1)[C@H]1CCCCCCCN(C)C(=O)[C@H](Cc2cc(Cl)ccc2-c2ccc(N3CCN(C)CC3)cc2)N(C)C(=O)[C@H](CC(C)C)NC1=O [Example 422] | 10 | 10 | 20 | 20 | 2.36 | 420 |  |  |  | 
CSc1cncc(-c2ccc(Cl)cc2C[C@H]2C(=O)N(C)CCCCCCC[C@H](N(C)C(=O)[C@@H](NC(=O)[C@@H]3C[C@@H](F)CN3C(=O)C3(C(F)(F)F)CC(F)(F)C3)C3CC3)C(=O)N[C@@H](CC(C)C)C(=O)N2C)c1 [Example 202] ({cBuCO(3,3-F2-1-CF3)}-[Pro(trans-4-F)][Gly(cPr)][NMehhhLys(Me)]L[X51]; lactam 3-C) | 60 | 40 | 50 | 20 | 9.11 | 1490 |  |  |  | 
CC(C)C[C@@H]1NC(=O)[C@@H](N(C)C(=O)[C@@H](NC(=O)[C@@H]2C[C@@H](F)CN2C(=O)C2(C(F)(F)F)CC(F)(F)C2)C2CC2)CCCCCCCN(C)C(=O)[C@H](Cc2cc(Cl)ccc2-c2ccc(N3C[C@H]4CC[C@@H](C3)N4C)cc2)N(C)C1=O [Example 362] ({cBuCO(3,3-F2-1-CF3)}-[Pro(trans-4-F)][Gly(cPr)][NMehhhLys(Me)]L[X53]; lactam 3-C) | 10 | 10 | 20 | 20 | 1.28 | 600 |  |  |  | 
CC(C)C[C@@H]1NC(=O)[C@@H](N(C)C(=O)[C@@H](NC(=O)[C@@H]2C[C@@H](F)CN2C(=O)[C@@]2(C(F)(F)F)CCCCO2)C2CC2)CCCCCCCN(C)C(=O)[C@H](Cc2cc(Cl)ccc2-c2cnn(C)c2)N(C)C1=O [Example 184] ({Oxane2carbonyl(2R-CF3)}-[Pro(trans-4-F)][Gly(cPr)][NMehhhLys(Me)]L[X22]; lactam 3-C) | 10 | 10 | 20 | 20 | 3.65 | 100 |  |  |  | 
Cc1nc(C)c(-c2ccc(Cl)cc2C[C@H]2C(=O)N(C)CCCCCCC[C@H](N(C)C(=O)[C@@H](NC(=O)[C@@H]3C[C@@H](F)CN3C(=O)C3(C(F)(F)F)CC(F)(F)C3)C3CC3)C(=O)N[C@@H](CC(C)C)C(=O)N2C)s1 [Example 207] ({cBuCO(3,3-F2-1-CF3)}-[Pro(trans-4-F)][Gly(cPr)][NMehhhLys(Me)]L[X14]; lactam 3-C) | 40 | 30 | 50 | 20 | 4.94 | 2730 |  |  |  | 
CC(C)C[C@@H]1NC(=O)[C@@H](N(C)C(=O)[C@@H](NC(=O)[C@@H]2C[C@@H](F)CN2C(=O)C2(C(F)(F)F)CCC2)C2CC2)CC=CCCCCN(C)C(=O)[C@H](Cc2cc(Cl)ccc2Cl)N(C)C1=O [Example 48] | 50 | 40 | 80 | 20 | 15.8 | 130 |  |  |  | 
COCCOCCN1CCN(c2ccc(-c3ccc(Cl)cc3C[C@H]3C(=O)N(C)CCCCCCC[C@H](N(C)C(=O)[C@@H](NC(=O)[C@@H]4C[C@@H](F)CN4C(=O)C4(C(F)(F)F)CC(F)(F)C4)C4CC4)C(=O)N[C@@H](CC(C)C)C(=O)N3C)cc2)CC1 [Example 356] ({cBuCO(3,3-F2-1-CF3)}-[Pro(trans-4-F)][Gly(cPr)][NMehhhLys(Me)]L[X3]; lactam 3-C) | 10 | 10 | 20 | 20 | 3.43 | 340 |  |  |  | 
CC(C)C[C@@H]1NC(=O)[C@@H](N(C)C(=O)[C@H](CCC(=O)N(C)C)NC(=O)[C@@H]2C[C@@H](F)CN2C(=O)C2(C(F)(F)F)CC(F)(F)C2)CCCCCCCN(C)C(=O)[C@H](Cc2cc(Cl)ccc2-c2ccc(N3CCOCC3)cc2)N(C)C1=O [Example 419, (S)—N1-((3S,6S,9S)-3-((4-chloro-4′-morpholino-[1,1′-biphenyl]-2-yl)methyl)-6-isobutyl-1,4-dimethyl-2,5,8-trioxo-1,4,7-triazacyclohexadecan-9-yl)-2-((2S,4R)-1-(3,3-difluoro-1-(trifluoromethyl)cyclobutane-1-carbonyl)-4-fluoropyrrolidine-2-carboxamido)-N1,N5,N5-trimethylpentanediamide] ({cBuCO(3,3-F2-1-CF3)}-[Pro(trans-4-F)]E(NMe2)[NMehhhLys(Me)]L[NMePhe(2-(4-MorPh),5-Cl)]; lactam 3-C) | 20 | 20 | 20 | 20 | 1.99 | 540 |  |  |  | 
